In EP0171977A1, “Phthalimide derivatives, compositions containing them and a process for preparing them” (SANKYO COMPANY LIMITED, priority 1984, dated 1986):
Read-outs that look alike come from different tables or passages of the source.

How the values were obtained:
[1] = system: right atrium of a guinea pig heart; assay: Effect on heart beat: spontaneous contraction of excised right atrium; settings: for inhibition at 100 µg/mL: Concentration 1x10^-4 g/ml; for inhibition at 30 µg/mL: Concentration 3x10^-5 g/ml
Procedure: The right atrium of a guinea pig heart was excised and placed in a bath containing Krebs - Henseleit solution maintained at 37°C, through which was bubbled a gas containing 95% oxygen and 5% carbon dioxide. […] The results, in terms of the percentage decrease (-) or increase (+) in the rate of heart beat, for the compounds of the invention and for glyceryl trinitrate are shown in Table 2.

collateral blood vessels = assay: Selective vasodilative effect on collateral blood vessels (coronary vascular resistance, method of Winburg et al.); type: in vivo; settings: anaesthetized dogs, test compound 30 ug/kg intravenously vs glyceryl trinitrate 3 µg/kg; for Glyceryl trinitrate ratio RL/RT: ratio of selectivity (RL/RT) of test compound to that of glyceryl trinitrate; for Glyceryl trinitrate ratio RL: ratio of vascular resistance (RL) of test compound to that of glyceryl trinitrate
Procedure: The test animals employed in this experiment were dogs. Each animal was anaesthetized with pentobarbital and the chest was opened to expose the heart, whilst respiration was maintained artificially.
Following the method of Winburg et al. [J. Pharmacol. Exp. Ther., 168, 70-95 (1969)], the vascular resistance (RL) between two points, one at a large coronary artery on the cardiac surface and the other at a small coronary artery, was calculated by dividing the blood pressure difference between these two points by the blood flow. The peripheral resistance of the coronary artery (RT) was determined and the value RL was divided by the value RT, to give the selectivity (RL/RT).
Each compound of the invention tested was administered intravenously at a dose of 30 ug/kg body weight immediately prior to the measurement of vascular resistance. The same experiment was carried out employing glyceryl trinitrate at a dose of 3 µg/kg body weight and the results are reported in the following Table 1 as the glyceryl trinitrate ratios, i.e. the ratio between the vascular resistance of the test compound and that of glyceryl trinitrate or the selectivity of the test compound and that of glyceryl trinitrate.

[2] = Cavia porcellus, Krebs - Henseleit solution, 37°C, read-out: percentage decrease (-) or increase (+) in the rate of heart beat
[3] = Cavia porcellus, Concentration 1x10^-5 g/ml, Krebs - Henseleit solution, 37°C, read-out: percentage decrease (-) or increase (+) in the rate of heart beat
[4] = Cavia porcellus, read-out: percentage decrease (-) or increase (+) in the rate of heart beat

Row | Structure (SMILES) | inhibition at 100 µg/mL [1, 2] [%] | inhibition at 10 µg/mL [1, 3] [%] | inhibition at 30 µg/mL [1, 2] [%] | Glyceryl trinitrate ratio RL/RT (collateral blood vessels) | Glyceryl trinitrate ratio RL (collateral blood vessels) | inhibition at 1 µg/mL [1, 4] [%] | inhibition at 3 µg/mL [1, 4] [%] | inhibition at 10 µg/mL [1, 4] [%] | change in the heart beat ([1]; added at doses between 10^-6 and 10 ^5 g/ml)
1 | CCN(CC)CCOc1ccc2c(c1)C(=O)N(CCO[N+](=O)[O-])C2=O [Compound No. 25, N-(2-nitrooxyethyl)-4-(2-N,N-diethylaminoethoxy)-phthalimide] | 73 | 53 | 67 | 1.6 | 1.6 | – | – | – | –
2 | CC(C)N(CCOc1ccc2c(c1)C(=O)N(CCO[N+](=O)[O-])C2=O)C(C)C [Compound No. 27, N-(2-nitrooxyethyl)-4-(2-N,N-diisopropylamino-ethoxy)phthalimide] | 71 | 59 | 64 | 1.4 | 1.8 | – | – | – | –
3 | CN(C)CCCOc1ccc2c(c1)C(=O)N(CCO[N+](=O)[O-])C2=O [Compound No. 51, N-(2-nitrooxyethyl)-4-(3-N,N-dimethylamino-propoxy)phthalimide] | 64 | 31 | 58 | 1.4 | 1.6 | – | – | – | –
4 | CC(COc1ccc2c(c1)C(=O)N(CCO[N+](=O)[O-])C2=O)CN(C)C (centres unmarked) [Compound No. 54, N-(2-nitrooxyethyl)-4-(3-N,N-dimethylamino-2-methylpropoxy)phthalimide] | 62 | 37 | 56 | 2.1 | 1.7 | – | – | – | –
5 | O=C1c2ccc(OCCN3CCCCC3)cc2C(=O)N1CCO[N+](=O)[O-] [Compound No. 59, N-(2-nitrooxyethyl)-4-(2-piperidinoethoxy)-phthalimide] | 74 | 32 | 61 | 1.6 | 1.2 | – | – | – | –
6 | O=[N+]([O-])OCC(CO[N+](=O)[O-])O[N+](=O)[O-] [Glyceryl trinitrate, reference compound] | – | – | – | – | – | 0 | -1 | 0 | very little or no change
